PubChem BioAssay (NCI)
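96-well plates; 48 h exposure; 5 concentrations. Endpoints by linear interpolation between flanking doses. Not reached: highest tested concentration assigned. GI50: concentration for 50% inhibition of growth. TGI marks complete inhibition of growth.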

Key:
Assay in all cases: NCI-60 cell line screen, 48 h
786-0 renal = tested on: 786-0 renal
A549 NSCLC = tested on: A549 NSCLC
HCC-2998 colon = tested on: HCC-2998 colon
HT29 colon = tested on: HT29 colon
IGROV1 ovarian = tested on: IGROV1 ovarian
MOLT-4 leukemia = tested on: MOLT-4 leukemia
NCI-H460 lung = tested on: NCI-H460 lung
OVCAR-3 ovarian = tested on: OVCAR-3 ovarian
SF-539 CNS = tested on: SF-539 CNS
PC-3 prostate = tested on: PC-3 prostate

| Structure (SMILES) | TGI (786-0 renal) | TGI (A549 NSCLC) | TGI (HCC-2998 colon) | TGI (HT29 colon) | TGI (IGROV1 ovarian) | TGI (MOLT-4 leukemia) | TGI (NCI-H460 lung) | TGI (OVCAR-3 ovarian) | TGI (SF-539 CNS) | GI50 (786-0 renal) | GI50 (HCC-2998 colon) | GI50 (HT29 colon) | GI50 (IGROV1 ovarian) | GI50 (MOLT-4 leukemia) | GI50 (NCI-H460 lung) | GI50 (OVCAR-3 ovarian) | GI50 (PC-3 prostate) | TGI (PC-3 prostate) | GI50 (SF-539 CNS) | GI50 (A549 NSCLC) |
| --- | --- | --- | --- | --- | --- | --- | --- | --- | --- | --- | --- | --- | --- | --- | --- | --- | --- | --- | --- | --- |
| CC(C)CC(CNC(Cc1ccc(Cl)cc1)C(N)=O)NC(=O)C(Cc1cnc[nH]1)NC(=O)CNC(=O)C(NC(=O)C(C)NC(=O)C(Cc1c[nH]c2ccccc12)NC(=O)C(CCC(=O)O)NC(=O)C(N)Cc1ccccc1)C(C)C (centres undefined) | > 133 µM | > 133 µM | > 133 µM | > 133 µM | > 133 µM | > 133 µM | > 133 µM | > 133 µM | > 133 µM | – | – | – | – | – | – | – | – | – | – | – |
| O=C(/C=C/c1c(O)ccc2ccccc12)c1cccc2ccccc12 | > 100 µM | > 100 µM | > 100 µM | > 100 µM | > 100 µM | > 100 µM | > 100 µM | > 100 µM | > 100 µM | – | – | – | – | – | – | – | – | – | – | – |
| COc1ccccc1CNC(=O)C1c2ccccc2C(=O)N(CC(C)C)C1c1cccs1 (centres undefined) | 51.2 µM | – | > 100 µM | 90.5 µM | > 100 µM | 73.9 µM | 46.9 µM | 89.1 µM | 33.8 µM | 20.3 µM | 47.8 µM | 17 µM | 22.4 µM | 14.5 µM | 18.1 µM | 25.7 µM | 15.9 µM | > 100 µM | 16.9 µM | – |
| Cc1cccc2c1Oc1cc(Cl)ccc1C2NC(=O)CN(C)C (centres undefined) | 41.4 µM | > 100 µM | > 100 µM | > 100 µM | > 100 µM | > 100 µM | > 100 µM | – | > 100 µM | – | – | – | – | – | – | – | – | – | – | – |
| c1ccc2cc(OCC3CO3)c(OCC3CO3)cc2c1 (centres undefined) | 12.9 µM | 30 µM | – | 20.1 µM | 11.1 µM | 16.5 µM | 15.8 µM | 27.9 µM | 9.13 µM | – | – | – | – | – | – | – | – | 32.1 µM | – | – |
| CCc1ccccc1-n1c2nc(=O)n(C)c(=O)c-2nc2ccccc21 | 30.5 µM | 27.6 µM | 25.6 µM | 14.3 µM | 35.4 µM | 35.4 µM | 20.8 µM | 6.79 µM | 27.7 µM | – | – | – | – | – | – | – | – | – | – | – |
| O=C(CCCNC(=O)OCc1ccccc1)OCc1ccc2c(c1)C(=O)c1ccccc1C2=O | > 56.2 µM | > 100 µM | > 100 µM | > 100 µM | 99 µM | > 100 µM | > 100 µM | > 100 µM | 57.8 µM | – | – | – | – | – | – | – | – | – | – | – |
| COc1ccc(NC(=O)Nc2ccc(Nc3nc(C)cc(Nc4ccc(C)cc4)n3)cc2)cc1 | 0.702 µM | – | 3.59 µM | – | 3.28 µM | 0.75 µM | – | 2.81 µM | 3.31 µM | 0.253 µM | 1.89 µM | – | 1.71 µM | 0.257 µM | – | 1.35 µM | 1.46 µM | 2.88 µM | 1.7 µM | – |
| Cc1c(C2Cc3ccccc3N2C(=O)/C=C\C(=O)O)c2ccccc2n1C (centres undefined) | 49.3 µM | > 100 µM | 39.5 µM | > 100 µM | 70.7 µM | 93.3 µM | > 100 µM | 43.1 µM | 42.6 µM | – | – | – | – | – | – | – | – | – | – | – |
| CCOC(=O)CC1=NC(=Nc2cc(Cl)ccc2Cl)SC1 | > 100 µM | > 100 µM | > 100 µM | > 100 µM | > 100 µM | – | > 100 µM | > 100 µM | > 100 µM | – | – | – | – | – | – | – | – | – | – | – |
| O=[N+]([O-])c1cc(Cl)cc2c1nc(NCCO)c1ccccc12 | > 100 µM | > 100 µM | – | > 43 µM | > 100 µM | 34 µM | 15.7 µM | > 100 µM | > 100 µM | – | – | – | – | – | – | – | – | > 70.4 µM | – | – |
| NC1=NC2(O)c3ccccc3C(=O)C2(O)N1 (centres undefined) | > 100 µM | > 100 µM | – | > 100 µM | > 100 µM | > 100 µM | > 100 µM | > 100 µM | > 100 µM | – | – | – | – | – | – | – | – | – | – | – |
| NS(=O)(=O)c1ccc(NC(=O)CC(=O)Nc2ccc(S(N)(=O)=O)cc2)cc1 | > 100 µM | > 100 µM | > 100 µM | > 100 µM | > 100 µM | > 100 µM | – | > 100 µM | > 100 µM | – | – | – | – | – | – | – | – | – | – | – |
| O=C(CCC(=O)N/N=C/c1ccccc1O)N/N=C/c1ccccc1O | > 100 µM | > 100 µM | > 100 µM | > 100 µM | > 100 µM | > 100 µM | – | > 100 µM | – | – | – | – | – | – | – | – | – | – | – | – |
| CCCCN(CCCC)CC(C)(C)C(O)c1ccc(OC)c2ccccc12 (centres undefined) | 28 µM | 35.3 µM | 12 µM | 13.4 µM | 14.1 µM | 11.7 µM | 16.5 µM | 13.9 µM | – | 10 µM | 3.69 µM | 0.875 µM | 1.69 µM | 2.68 µM | 3.52 µM | 2.84 µM | 2.88 µM | 13.7 µM | – | 11.1 µM |
| CCc1ccc(/C(C)=N/NC(N)=S)cc1 | > 100 µM | > 100 µM | > 100 µM | > 100 µM | > 100 µM | > 100 µM | – | > 100 µM | > 100 µM | – | – | – | – | – | – | – | – | – | – | – |
| OCC(O)COc1c(Cl)ccc(Cl)c1Cl (centres undefined) | > 100 µM | > 100 µM | > 100 µM | > 100 µM | > 100 µM | > 100 µM | > 100 µM | > 100 µM | > 100 µM | – | – | – | – | – | – | – | – | – | – | – |
| O=C(N/C(=C\c1ccc(Br)cc1)c1nc2ccccc2s1)c1ccccc1 | > 100 µM | > 100 µM | – | > 100 µM | > 100 µM | > 100 µM | > 100 µM | > 100 µM | > 100 µM | – | – | – | – | – | – | – | – | – | – | – |
| Cc1[nH]c(=O)nc(CC(O)(c2ccccc2)c2ccccc2)c1-c1ccccc1 | > 100 µM | > 100 µM | > 100 µM | > 100 µM | > 100 µM | > 100 µM | > 100 µM | > 100 µM | > 100 µM | – | – | – | – | – | – | – | – | – | – | – |
| CC(=O)OCC(OC(C)=O)C(OC(C)=O)C(OC(C)=O)C(=O)CNn1c(-c2ccccc2)nc2ccc(Br)cc2c1=O (centres undefined) | > 100 µM | > 100 µM | – | > 100 µM | – | > 100 µM | > 100 µM | > 100 µM | > 100 µM | – | – | – | – | – | – | – | – | – | – | – |
| COc1cc2nc(-c3ccc(-n4cncc4-c4ccc(N)cc4)cc3)sc2c(OC)c1OC | > 100 µM | 32.5 µM | – | > 100 µM | 20.2 µM | – | > 100 µM | 15.1 µM | > 100 µM | 6.26 µM | – | 2.79 µM | 2.63 µM | – | 5.13 µM | 2.73 µM | 3.02 µM | 49.2 µM | 7.14 µM | 3.14 µM |
